According to US12496336B2 (priority 2019, dated 2025):

System: H3N2 A/Hong Kong/1/1968 virus
Type: cell-based, influenza A virus

CC(=O)N[C@H]1[C@H]([C@H](O)[C@H](O)CO)OC(C(=O)O)=C[C@@H]1N=C(N)N [Zanamivir, zanamivir]
inhibition of cell-to-cell spread of the virus: efficient inhibition of cell-to-cell virus spread
